The values below come from paper PMC11314561, “Design and Synthesis of Novel Aminoindazole-pyrrolo[2,3-b]pyridine Inhibitors of IKKα That Selectively Perturb Cellular Non-Canonical NF-κB Signalling” (Molecules, 2024).

As a reminder, the half-life is how long it takes for the measured level to halve. A higher half-life goes with slow loss. The term inhibition denotes the relative decrease from the control value, in per cent.

Series [1] in a line: Mouse hepatocyte intrinsic clearance and half-life. Type of series: in vitro ADME. Conditions: mouse CD1 hepatocytes; for half-life at 1 µM: cryopreserved pooled hepatocytes; for Mouse Hepatocyte Clearance: 1 µM. On the procedure:
Intrinsic clearance and half-life were determined using cryopreserved pooled mouse CD1 hepatocytes. Test compounds were analysed at 1 µM in Williams Media E buffer (0.01% DMSO) at a cell density of 0.5 × 10^6 cells mL^–1. Cells were incubated at 37 °C for one hour with shaking, and compound depletion was measured by LC-MS/MS at six time points (0.25, 5, 10, 20, 40, and 60 min).

In the next series the target is T1, Aurora-A(h) (Homo sapiens, UniProt O14965).
T1 sequence (O14965 1-403): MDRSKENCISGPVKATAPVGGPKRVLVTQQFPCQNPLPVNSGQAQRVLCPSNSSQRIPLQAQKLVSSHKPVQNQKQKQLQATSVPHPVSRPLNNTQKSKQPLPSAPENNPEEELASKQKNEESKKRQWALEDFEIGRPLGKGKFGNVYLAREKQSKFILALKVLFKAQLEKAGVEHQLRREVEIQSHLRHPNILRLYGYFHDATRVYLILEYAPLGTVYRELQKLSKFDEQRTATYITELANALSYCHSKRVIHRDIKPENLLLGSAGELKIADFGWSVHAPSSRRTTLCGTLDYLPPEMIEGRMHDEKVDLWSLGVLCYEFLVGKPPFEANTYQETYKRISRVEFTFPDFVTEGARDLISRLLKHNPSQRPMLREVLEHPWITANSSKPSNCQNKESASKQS
Briefly: kinase panel. The format is biochemical. In outline: (§1)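 % inhibition read-out; kinome panel of 231 kinases; one analogue run on a selected 98-kinase subset only.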

In a further series the target is CDK1/cyclinB(h) (Homo sapiens, UniProt P06493). The series can be described thus: kinase panel. Type of series: biochemical. Put shortly: as §1
The target in a further series is T2, MKK7β(h) (Homo sapiens, UniProt O14733).
T2 sequence (O14733 1-419): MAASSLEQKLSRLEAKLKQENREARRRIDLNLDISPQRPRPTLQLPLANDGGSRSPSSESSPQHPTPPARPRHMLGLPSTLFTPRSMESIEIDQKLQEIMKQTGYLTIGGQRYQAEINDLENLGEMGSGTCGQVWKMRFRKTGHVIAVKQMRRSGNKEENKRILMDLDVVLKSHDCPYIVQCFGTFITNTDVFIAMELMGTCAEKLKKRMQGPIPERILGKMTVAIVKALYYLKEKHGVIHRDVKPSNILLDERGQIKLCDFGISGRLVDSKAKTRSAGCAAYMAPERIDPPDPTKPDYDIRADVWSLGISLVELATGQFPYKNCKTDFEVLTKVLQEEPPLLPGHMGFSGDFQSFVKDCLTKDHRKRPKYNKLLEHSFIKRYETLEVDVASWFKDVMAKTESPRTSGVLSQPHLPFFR
The series can be described thus: kinase panel. Type of series: biochemical. Put shortly: as §1

For the next series, the target named is Rsk1(h) (Homo sapiens, UniProt Q15418). Briefly: kinase panel. The format is biochemical. Put shortly: as §1
A further series has as its target Syk(h) (Homo sapiens, UniProt P43405). Briefly: kinase panel. The format is biochemical. In outline: as §1
A further series concerns the target T3, TAO1(h) (Homo sapiens, UniProt Q7L7X3).
T3 sequence (Q7L7X3 1-1001): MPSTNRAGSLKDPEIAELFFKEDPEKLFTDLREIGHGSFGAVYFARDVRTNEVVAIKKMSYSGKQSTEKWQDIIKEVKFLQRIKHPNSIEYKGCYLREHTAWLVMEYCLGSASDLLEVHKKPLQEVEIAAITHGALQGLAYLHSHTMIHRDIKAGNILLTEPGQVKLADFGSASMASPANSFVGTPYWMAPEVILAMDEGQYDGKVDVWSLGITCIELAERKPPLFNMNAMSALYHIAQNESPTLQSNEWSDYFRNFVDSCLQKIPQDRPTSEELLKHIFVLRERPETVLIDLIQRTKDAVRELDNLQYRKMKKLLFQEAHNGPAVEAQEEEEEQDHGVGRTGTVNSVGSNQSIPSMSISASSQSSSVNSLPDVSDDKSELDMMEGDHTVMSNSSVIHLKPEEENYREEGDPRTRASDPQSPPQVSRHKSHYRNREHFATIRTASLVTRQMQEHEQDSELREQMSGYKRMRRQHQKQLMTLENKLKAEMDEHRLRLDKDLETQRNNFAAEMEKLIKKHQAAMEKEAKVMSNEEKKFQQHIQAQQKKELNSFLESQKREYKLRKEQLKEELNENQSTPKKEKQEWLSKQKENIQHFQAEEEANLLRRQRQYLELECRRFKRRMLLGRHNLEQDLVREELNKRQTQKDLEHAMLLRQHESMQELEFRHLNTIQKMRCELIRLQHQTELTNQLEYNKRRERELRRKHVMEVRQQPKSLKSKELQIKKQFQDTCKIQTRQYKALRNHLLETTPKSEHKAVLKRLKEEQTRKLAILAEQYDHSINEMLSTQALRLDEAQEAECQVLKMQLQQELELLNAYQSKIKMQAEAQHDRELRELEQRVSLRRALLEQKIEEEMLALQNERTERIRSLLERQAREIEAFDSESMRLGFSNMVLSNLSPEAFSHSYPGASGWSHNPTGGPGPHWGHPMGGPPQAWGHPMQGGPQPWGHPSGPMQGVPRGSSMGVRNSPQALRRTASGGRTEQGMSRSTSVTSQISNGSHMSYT
Briefly: kinase panel. Type of series: biochemical. Put shortly: as §1

Chain of Rsk1(h) (Q15418 whole entry): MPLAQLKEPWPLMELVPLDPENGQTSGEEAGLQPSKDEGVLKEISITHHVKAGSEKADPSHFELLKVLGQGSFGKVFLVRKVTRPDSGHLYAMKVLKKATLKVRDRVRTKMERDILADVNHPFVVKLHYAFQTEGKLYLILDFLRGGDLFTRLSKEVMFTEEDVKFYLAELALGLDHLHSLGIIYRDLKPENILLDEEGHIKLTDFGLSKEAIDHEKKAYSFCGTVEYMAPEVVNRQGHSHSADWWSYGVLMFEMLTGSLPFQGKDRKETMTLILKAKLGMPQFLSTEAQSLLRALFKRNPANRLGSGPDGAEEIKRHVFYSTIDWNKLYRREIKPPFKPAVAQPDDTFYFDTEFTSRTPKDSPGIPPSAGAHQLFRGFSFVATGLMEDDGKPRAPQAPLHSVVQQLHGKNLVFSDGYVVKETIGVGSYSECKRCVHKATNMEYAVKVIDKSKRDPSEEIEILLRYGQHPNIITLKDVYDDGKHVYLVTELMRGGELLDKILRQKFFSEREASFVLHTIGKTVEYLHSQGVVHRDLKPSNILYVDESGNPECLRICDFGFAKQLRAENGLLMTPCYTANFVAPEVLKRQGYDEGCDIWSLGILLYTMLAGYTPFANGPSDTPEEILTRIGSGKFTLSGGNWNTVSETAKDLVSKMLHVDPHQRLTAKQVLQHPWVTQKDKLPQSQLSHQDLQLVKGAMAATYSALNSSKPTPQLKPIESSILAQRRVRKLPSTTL
Chain of CDK1/cyclinB(h) (P06493 whole entry): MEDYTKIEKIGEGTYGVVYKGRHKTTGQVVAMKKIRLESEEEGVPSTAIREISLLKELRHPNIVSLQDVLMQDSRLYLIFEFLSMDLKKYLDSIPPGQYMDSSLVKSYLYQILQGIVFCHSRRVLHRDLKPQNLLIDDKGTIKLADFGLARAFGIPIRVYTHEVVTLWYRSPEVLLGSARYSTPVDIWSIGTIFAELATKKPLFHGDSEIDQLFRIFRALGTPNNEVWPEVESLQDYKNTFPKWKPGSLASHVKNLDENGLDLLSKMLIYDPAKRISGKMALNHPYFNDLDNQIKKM
Chain of CDK1/cyclinB(h) (P14635 whole entry partner): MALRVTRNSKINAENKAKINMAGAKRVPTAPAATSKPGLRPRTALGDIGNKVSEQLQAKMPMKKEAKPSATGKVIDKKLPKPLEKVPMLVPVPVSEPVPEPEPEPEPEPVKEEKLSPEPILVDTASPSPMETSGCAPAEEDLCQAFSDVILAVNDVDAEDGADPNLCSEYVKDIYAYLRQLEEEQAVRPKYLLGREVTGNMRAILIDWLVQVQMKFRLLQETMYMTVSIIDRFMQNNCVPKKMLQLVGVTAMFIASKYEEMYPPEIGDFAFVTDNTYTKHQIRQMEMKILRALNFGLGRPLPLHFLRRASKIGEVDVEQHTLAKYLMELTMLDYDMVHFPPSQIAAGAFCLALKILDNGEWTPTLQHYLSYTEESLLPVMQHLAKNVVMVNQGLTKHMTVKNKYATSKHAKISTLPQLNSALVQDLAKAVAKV

In turn, `Nc1n[nH]c2ccc(-c3ccnc4[nH]c(-c5ccnc(OCc6ccccc6)c5)cc34)cc12` [Compound 6g [SU1349]] returned a half-life at 1 µM in series [1] of 51 min. In series [1], the “Mouse Hepatocyte Clearance” value is listed as 27 μL/min/10^6 Cells. The inhibition at 1 µM was 36% on Aurora-A(h); 58% on CDK1/cyclinB(h); 11% at MKK7β(h); -18% at Rsk1(h); 25% against Syk(h); 5% on TAO1(h).

As for `Nc1n[nH]c2ccc(-c3ccnc4[nH]c(-c5cccc(OCc6ccccc6)c5)cc34)cc12` [Compound 5r [SU1261]], the half-life at 1 µM in series [1] was found to be 36 min. The “Mouse Hepatocyte Clearance” value in series [1] came out at 38 μL/min/10^6 Cells. Also, the inhibition at 1 µM against Aurora-A(h) was 52%; on CDK1/cyclinB(h) it was 77%; at MKK7β(h), 99%; against Rsk1(h) it was 2%; at Syk(h), 32%; on TAO1(h), 16%.

For the compound `Nc1n[nH]c2ccc(-c3ccnc4[nH]c(-c5ccccc5)cc34)cc12` [Compound 4], the inhibition at 1 µM is 88% against Aurora-A(h); 101% against CDK1/cyclinB(h); 80% on MKK7β(h); 38% against Rsk1(h); 77% at Syk(h); 73% on TAO1(h).
